From patent publication US20030055018A1, “Modulation of phosphoinositide 3-kinase activity” (priority 2001, published 2003)

How the values were obtained:
[1] = system: HaCaT cells; assay: Suspension survival assay of HaCaT keratinocytes; format: cell-based, human
Experimental: FIG. 8 is presented to complementary roles of tyrosine kinase and small GTPase signals induced by integrin or growth factor stimulation, in PI3K/Akt activation and cell survival. […] Akt kinase activity in cell lysates harvested 30 minutes later was measured by in vitro phosphorylation of H2B. […] HaCaT cells or HaCaT cells stably-expressing activated H-Ras G12V were cultured on 0.9% agarose in MCDB base medium. EGF was used at 2 nM concentration in the indicated culltures. Cell aliquots were removed after 6 hours in suspension for immunoblot analysis. Cell viability was examined after 10 days in suspension as described (Jost et al., 2001, Mol Biol Cell 12, 1519-27). (C) A model of PI3K activation by tyrosine kinase- and small GTPase signals. According to this model, p85 binds, via its cSH2 motif, tyrosine phosphorylated proteins and undergoes phosphorylation at Y688. Phosphorylation at this site, functionally inactivates the p85 inhibitory domain. Neutralization of the inhibitory domain renders p85 responsive to PI3K activation signals that are transduced by small GTPases.
These experiments were carried out in serum-free define media. The constitutively-active H-Ras G12V activates the PI3K/Akt pathway and rescues cells from anoikis only in suspension cultures supplemented with epidermal growth factor (EGF) (FIG. 8B). […] Thus, PI3K/Akt activation and inhibition of anoikis depend on the combination of tyrosine kinase and small GTPase signals.
Suspension survival assay were performed as previously described (Jost et al., 2001, Mol Biol Cell 12, 1519-27). […] Cell viability was measured after 10 days in suspension. Cell viability was analysed by crystal violet staining of cells reseeded after 10 days of suspension culture onto tissue culture-treated plastic and allowed to grow for 3 days. […]

[2] = system: PI3K; assay: PtdIns-3,4,5-P3 measured by thin layer chromatography in lipid extracts of 32P-labeled transfected NIH3T3 cells; format: cell-based, mouse; details: construct co-transfected with constitutively-active H-Ras G12V; serum-free; 32P-orthophosphate 1.5 h
Experimental: In FIG. 1, it is shown that p85 inhibits while p85Δonc enhances PI3K activation by small GTPases. (A) Schematic diagrams and expression of transiently transfected HA-tagged p85-WT and p85Δonc constructs. (B) Upper panel. p85-WT inhibits while p85Δonc enhances HRas-induced PtdIns-3, 4, 5-P3 production. The indicated constructs were transiently transfected into NIH3T3 cells. Sixteen hours after transfection, the cells were cultured in serum-free media. Five hours later, they were labeled with ^32P-orthophosphate for 1.5 hours. Total phospholipids were analyzed by thin layer chromatography. (B) Lower panel. p85-WT inhibits while p85Δonc enhances H-Ras induced Akt phosphorylation. Immunoblots of cell extracts from duplicate transfections were probed with an antibody that recognizes Akt phosphorylated at Thr308 or with antibodies that recognize the proteins expressed from the transfected constructs. […] NIH3T3 cells were transiently transfected with the indicated constructs. ^32P-labeled PtdIns-3, 4, 5-P3 was measured as described in B. Akt phosphorylation at Thr308 and expression of transfected constructs were determined by probing immunoblots with the corresponding antibodies. […]
PtdIns-3, 4, 5-P3 was measured in lipid extracts of ^32P-labeled NIH3T3 cells by thin layer chromatography (Maehama et al., 1998, J Biol Chem 273, 13375-8). […]

[3] = system: PI3K/Akt pathway; assay: Akt activation in transfected NIH3T3 cells (H2B phosphorylation by immunoprecipitated FLAG-Akt, or Akt Thr308 immunoblot); format: cell-based, mouse
Text: Specifically, to show whether membrane-associated full-length p85 is functionally similar to the carboxy-terminally truncated protein the p85 fused at its amino-terminus to a peptide encoding the Src myristoylation signal (Myrp85-WT) (FIG. 2A), was transiently expressed in NIH3T3 cells in combination with FLAG-Akt or FLAG-Akt plus H-Ras. Myrp85Δonc was used as a control. The cells were lysed forty-eight hours later, following overnight serum starvation. Akt activation in this, and subsequent experiments, was determined by measuring the phosphorylation of histone 2B (H2B) by immunoprecipitated Akt.
Akt/PKB activation by phosphorylation strictly depends on the binding of the Akt PH domain to PtdIns-3,4,5-P3 and therefore, indirectly measures intracellular PtdIns-3,4,5-P3 levels (Chan et al., 1999, Ann Rev Biochem 68, 965-1015). Akt/PKB kinase activation was determined either by measuring the phosphorylation of Akt at Thr308 using an antibody from Cell Signaling Technology or by measuring the kinase activity of immunoprecipitated FLAG-tagged wild type Akt. The activity of immunoprecepitated Akt was measured using Histone 2B as the substrate, and following previously described protocols (Bellacosa et al., 1998, Oncogene 17, 313-25; Franke et al., 1995, Cell 81, 727-736) with slight modifications. Briefly, cells were lysed on ice using a NP40 lysis buffer (25 mM Tris-HCl pH 7.6, 137 mM NaCl, 10% glycerol, 1% NP40, 10 mM NaF) freshly supplemented with 1 mM Sodium pyrophosphate, 5 μg/ml leupeptin, 5 μg/ml aprotinin, 1 mM EDTA, 10 mM PMSF, 1 mM NaVO4 and 1 mM DTT. […] The phosphorylated Histone H2B was visualized by autoradiography and quantitated by Phosphorlmager (Molecular Dynamics). Akt expression was determined by probing the membranes with a polyclonal rabbit anti-Akt antibody.
Specific Akt kinase activity was determined by Phosphorimager-quantitation of the ^32P-phosphorylated Akt substrate Histone 2B, and by quantification of Akt in anti-Akt immunoprecipitates using a laser densitometry scanner (Molecular Dynamics). […]

epidermal growth factor (NSDSECPLSHDGYCLHDGVCMYIEALDKYACNCVVGYIGERCQYRDLKWWELR; Epidermal growth factor; UniProt P01133 971-1023, looked up) [EGF]
Long-term cell survival (10 days) in suspension, cells expressing activated H-Ras G12V ([1]; EGF 2 nM, serum-free defined medium): cooperate to support long-term cell survival | Rescue from anoikis, HaCaT cells without H-Ras G12V ([1]; EGF alone, 2 nM): failed to rescue | PI3K/Akt activation, HaCaT cells without H-Ras G12V ([1]; EGF alone, 2 nM, 6 hours in suspension): inefficient

p85-WT: HA-tagged construct of wild-type p85, regulatory subunit of PI3K
H-Ras-induced PtdIns-3, 4, 5-P3 production [2]: inhibits | PI3K activation by Ras signals in the presence of NM-Src ([3]; H-Ras-G12V plus NM-Src, PtdIns-3,4,5-P3 and Akt Thr308): does not inhibit | H-Ras induced Akt phosphorylation at Thr308 ([3]; co-transfected with H-Ras G12V, immunoblot): inhibits | PI3K/Akt activation by H-Ras (Akt kinase activity, H2B phosphorylation) ([3]; co-transfected with constitutively-active H-Ras and FLAG-Akt, overnight serum starvation): blocks
